{"source": "patent US11839614B2", "about": "“Methods for treating or mitigating cardiotoxicity characterized by inhibition of adenosine A2 signaling and/or adenosine A2 receptor expression” (INTRA-CELLULAR THERAPIES, INC., priority 2018, dated 2023)", "key": {"[1]": {"system": "rabbit heart and vasculature", "test": "Anesthetized rabbit pressure-volume hemodynamics with or without esmolol or MRS-1754", "format": "in vivo", "excerpt": "Cyclic AMP is generated largely by transmembrane adenylyl cyclases activated via stimulatory G protein (Gs), with β-adrenergic, adenosine (primarily A2B), glucagon, prostanoids, histamine, and serotonin all coupling to Gs in cardiomyocytes. The present studies focus on beta-adrenergic and adenosine receptors, and for the latter, concentrated on the A2B receptor, which has been reported to directly stimulate cAMP-dependent contractility. […] Relaxation changes are also modest with LV preload (end-diastolic and volume) unaltered; however, the combined vasodilator-inotropic response doubled ventricular/arterial coupling ratio, Ees/Ea.\n(§1) New Zealand White rabbits (male, 2-3 kg) are sedated with 35 mg/kg ketamine and 5 mg/kg xylazine, intubated and ventilated (Model 683, Harvard Apparatus, Holliston, Mass.), with anesthesia maintained with isoflurane inhalation (1-2%). A pressure-volume catheter (SPR-894, Millar, Inc., Houston, Tex.) is inserted via the common carotid artery and advanced to the LV apex, and a 2-Fr pacing catheter is positioned in the right atrium via the right jugular vein to provide atrial pacing. […] The parallel conductance is determined by the hypertonic saline injection method. Rabbits are infused with 6% hetastarch in saline during the procedure to stabilize arterial pressure."}, "[2]": {"system": "myocyte cAMP", "test": "Whole cell cAMP in isolated rabbit myocytes", "format": "cell-based", "conditions": "agent added to Fsk", "excerpt": "This is consistent with prior studies showing locally generated cAMP from β-AR and its modulation by PDE3 occur in local subcellular domains that are not easily detected in whole cell lysates32."}, "[3]": {"test": "Plasma level in mice", "format": "in vivo", "conditions": "iv, mouse, 15 minutes after i.v. dosing", "protocol": "Rabbit dosing at 0.1 mg/kg i.v. yields plasma values of 213±88 ng/mL at 15 min. Mouse plasma levels 15 minutes after i.v. dosing was 334+/−74 ng/mL. Therapeutic levels are 100-300 ng/mL, and so analysis is presented after 120 min for P.O. and after 20 min for i.v. (somewhat sooner in rabbit and mouse due to faster kinetics).\n(§2) To test this, mice were administered the same or higher intravenous bolus doses (0.1, 0.5 mg/kg) as used in dogs and rabbits, and studied using a similar preparation to the rabbit."}, "[4]": {"target": "T1, r-hPDE1C (Homo sapiens, UniProt Q14123)", "T1 construct": "Its Kis for full-length recombinant r-hPDE1A, 1B, and 1C are 34, 380, and 37 pM", "T1 sequence (Q14123 whole entry)": "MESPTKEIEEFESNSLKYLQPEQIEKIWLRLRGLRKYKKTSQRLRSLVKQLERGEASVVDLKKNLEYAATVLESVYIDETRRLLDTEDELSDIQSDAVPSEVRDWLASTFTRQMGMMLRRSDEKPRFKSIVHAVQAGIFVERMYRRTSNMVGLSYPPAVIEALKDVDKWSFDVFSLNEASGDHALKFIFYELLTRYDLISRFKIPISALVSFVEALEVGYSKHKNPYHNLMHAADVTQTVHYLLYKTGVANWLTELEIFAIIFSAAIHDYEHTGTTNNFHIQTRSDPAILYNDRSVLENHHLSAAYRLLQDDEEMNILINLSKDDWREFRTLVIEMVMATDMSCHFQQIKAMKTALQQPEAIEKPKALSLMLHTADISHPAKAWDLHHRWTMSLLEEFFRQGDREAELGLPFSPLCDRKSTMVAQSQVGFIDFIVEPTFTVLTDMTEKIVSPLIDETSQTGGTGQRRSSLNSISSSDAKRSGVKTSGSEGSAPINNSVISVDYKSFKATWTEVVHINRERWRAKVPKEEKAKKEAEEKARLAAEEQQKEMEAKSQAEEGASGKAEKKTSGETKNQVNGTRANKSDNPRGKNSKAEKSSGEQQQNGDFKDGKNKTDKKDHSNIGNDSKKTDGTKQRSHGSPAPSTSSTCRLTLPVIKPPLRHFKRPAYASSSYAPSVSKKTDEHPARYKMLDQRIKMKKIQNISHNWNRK", "test": "Ki for full-length recombinant PDE1C", "format": "biochemical", "excerpt": "(§3) Additional pharmaceuticals used in the following examples are dobutamine (Hospira Inc., Lake Forest, Ill.), esmolol HCl (Mylan, Rockford, Ill.), MRS1754 (Tocris Bioscience, Bristol, UK), and Hespan (6% Hetastarch in 0.9% NaCl B. Braun Medical Inc., Bethlehem, Pa.)."}, "[5]": {"system": "murine heart", "test": "Acute cardiovascular effects in intact mice", "format": "in vivo, mouse", "conditions": "intravenous bolus 0.1, 0.5 mg/kg", "protocol": "as §2"}, "[6]": {"target": "T2, r-hPDE1A (Homo sapiens, UniProt P54750)", "T2 construct": "Its Kis for full-length recombinant r-hPDE1A, 1B, and 1C are 34, 380, and 37 pM", "T2 sequence (P54750 whole entry)": "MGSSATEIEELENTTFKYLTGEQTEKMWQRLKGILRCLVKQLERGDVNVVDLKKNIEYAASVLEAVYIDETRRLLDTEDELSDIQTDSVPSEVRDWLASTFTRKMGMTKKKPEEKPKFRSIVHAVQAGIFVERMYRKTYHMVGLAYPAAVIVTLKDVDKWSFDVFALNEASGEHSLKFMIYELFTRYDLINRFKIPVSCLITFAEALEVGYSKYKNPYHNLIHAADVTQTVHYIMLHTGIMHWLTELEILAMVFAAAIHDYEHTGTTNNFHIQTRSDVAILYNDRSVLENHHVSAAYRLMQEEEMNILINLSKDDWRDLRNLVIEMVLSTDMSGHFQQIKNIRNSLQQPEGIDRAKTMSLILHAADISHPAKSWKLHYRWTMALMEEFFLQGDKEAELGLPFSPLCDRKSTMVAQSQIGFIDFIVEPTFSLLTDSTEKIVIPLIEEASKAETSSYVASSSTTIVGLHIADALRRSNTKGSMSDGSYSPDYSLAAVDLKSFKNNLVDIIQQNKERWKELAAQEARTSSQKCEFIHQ", "test": "Ki for full-length recombinant PDE1A", "format": "biochemical", "excerpt": "as §3"}, "[7]": {"system": "plasma cAMP and cGMP", "test": "Plasma cAMP and cGMP by ELISA in dogs", "format": "in vivo, dog", "protocol": "Blood plasma is obtained from these animals, and cAMP and cGMP are assayed by ELISA."}, "[8]": {"test": "Plasma level in rabbits (LC/MS-MS)", "format": "in vivo", "conditions": "male, New Zealand White, iv, rabbit, 0.1 mg/kg i.v.", "protocol": "as §1\n(§4) Intravenous blood is placed in K2EDTA tubes, centrifuged at 2,000 g for 15 min, plasma decanted, and stored frozen. Compound 1 levels are assessed by a rapid, sensitive liquid chromatography-tandem mass spectrometric (LC/MS-MS) method.\nThe mobile phase consists of a gradient of 60-100% methanol over 4.5 minutes in 5 mM ammonium bicarbonate with 0.2% NH3H2O, pumped at a flow rate of 0.8 mL/min. Analysis time is 4.5 min and both the analyte and internal standard eluted around 2.0 min. Multiple reactions monitoring (MRM) mode is used to detect Compound 1. MS is operated in the positive ion detection mode. […] The lower limit of quantification (LLOQ) for plasma was 0.02 ng/mL."}, "[9]": {"system": "normal and failing canine hearts", "test": "Conscious dog pressure-volume hemodynamic analysis, normal and failing hearts", "format": "in vivo", "excerpt": "Dogs are studied in the conscious state before and after inducing dilated cardiomyopathy by tachypacing for two weeks at 200 bpm. […]\nLoad insensitive indexes of contractility (dP/dtmax/IP and PRSW) increased."}, "[10]": {"target": "PDE4D (Homo sapiens, UniProt Q08499)", "sequence (Q08499 whole entry, species assumed)": "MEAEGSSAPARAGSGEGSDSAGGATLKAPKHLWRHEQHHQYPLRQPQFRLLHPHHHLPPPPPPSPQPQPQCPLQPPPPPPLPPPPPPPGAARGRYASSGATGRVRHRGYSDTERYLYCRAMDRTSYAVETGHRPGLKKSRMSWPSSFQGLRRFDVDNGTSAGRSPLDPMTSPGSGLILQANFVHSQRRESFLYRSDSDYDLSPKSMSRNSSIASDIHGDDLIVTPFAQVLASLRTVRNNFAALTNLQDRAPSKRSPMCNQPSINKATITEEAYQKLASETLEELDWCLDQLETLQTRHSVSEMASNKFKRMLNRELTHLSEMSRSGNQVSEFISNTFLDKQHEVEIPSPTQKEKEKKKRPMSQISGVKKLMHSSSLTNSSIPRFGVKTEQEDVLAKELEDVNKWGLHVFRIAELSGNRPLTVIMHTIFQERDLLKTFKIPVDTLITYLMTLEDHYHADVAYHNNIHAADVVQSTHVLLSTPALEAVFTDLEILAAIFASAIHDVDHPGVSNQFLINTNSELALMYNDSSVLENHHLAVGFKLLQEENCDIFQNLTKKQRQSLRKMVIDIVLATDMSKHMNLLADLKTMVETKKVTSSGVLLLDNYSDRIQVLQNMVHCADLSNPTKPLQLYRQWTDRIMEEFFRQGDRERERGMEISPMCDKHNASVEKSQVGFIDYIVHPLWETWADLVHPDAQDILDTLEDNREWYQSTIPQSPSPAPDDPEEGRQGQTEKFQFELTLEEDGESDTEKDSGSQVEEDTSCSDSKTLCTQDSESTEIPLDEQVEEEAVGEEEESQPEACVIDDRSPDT", "excerpt": "as §3"}, "[11]": {"test": "Plasma Compound 1 levels in dogs (LC/MS-MS)", "format": "in vivo", "conditions": "dog; for concentration at 10 min / concentration at 30 min / concentration at 120 min: mongrel, plasma; for concentration at 10 min / concentration at 30 min: iv; for concentration at 120 min: po, 10 mg, 10 mg P.O., 120 min post dose", "protocol": "Dogs are studied in the conscious state before and after inducing dilated cardiomyopathy by tachypacing for two weeks at 200 bpm.\nThe study employs two doses, 0.01 and 0.1 mg/kg, the latter administered 30 minutes after the first.\nas §4\nThe mobile phase consists of a gradient of 60-100% methanol over 4.5 minutes in 5 mM ammonium bicarbonate with 0.2% NH3H2O, pumped at a flow rate of 0.8 mL/min. Analysis time is 4.5 min and both the analyte and internal standard eluted around 2.0 min. Multiple reactions monitoring (MRM) mode is used to detect Compound 1. MS is operated in the positive ion detection mode. […] Calibration curves are linear from 0.02-500 ng/mL in dog plasma sample matrices. The lower limit of quantification (LLOQ) for plasma was 0.02 ng/mL."}, "[12]": {"conditions": "control and HF dogs, 10 mg/kg oral, two hours"}, "[13]": {"conditions": "0.1 mg/kg, plasma Compound 1 concentration, normal dogs, 0.1 mg/kg i.v."}, "[14]": {"conditions": "0.1 mg/kg, plasma Compound 1 level, failing dogs, IV administration"}}, "data": [{"smiles": "CN1C(=O)c2c(nn(Cc3ccc(-c4cccc(F)n4)cc3)c2Nc2ccccc2)N2C1=N[C@@H]1CCC[C@@H]12", "note": "[Compound 1, (6aR,9aS)-2-(4-(6-fluoropyridin-2-yl)benzyl)-5-methyl-3-(phenyl-amino)-5,6a,7,8,9,9a-hexahydrocyclopenta-[4,5]imidazo[1,2-a]pyrazolo[4,3-e]pyrimidin-4-(2H)-one monophosphate]", "values": [{"measurement": "cardiac output", "setting": "[1]; 0.1 mg/kg i.v. bolus alone", "value": "increases cardiac output"}, {"measurement": "heart rate", "setting": "[1]; 0.1 mg/kg i.v. bolus alone", "value": "modestly elevated heart rate"}, {"measurement": "rise in end-systolic elastance", "setting": "[1]; 0.1 mg/kg i.v. bolus alone", "value": 50, "unit": "%"}, {"measurement": "rise in pre-load recruitable stroke work", "setting": "[1]; 0.1 mg/kg i.v. bolus alone", "value": 50, "unit": "%"}, {"measurement": "systemic resistance", "setting": "[1]; 0.1 mg/kg i.v. bolus alone", "value": "lowered systemic resistance"}, {"measurement": "systolic pressure", "setting": "[1]; 0.1 mg/kg i.v. bolus alone", "value": "no change in systolic pressure"}, {"measurement": "contractile and vasodilation effects", "setting": "[1]; Compound 1 after esmolol", "value": "remain intact"}, {"measurement": "heart rate", "setting": "[1]; Compound 1 after esmolol", "value": "no longer increases HR"}, {"measurement": "responses with heart rate fixed compared with heart rate allowed to change", "setting": "[1]; atrially paced at ~20% above sinus node rate", "value": "nearly identical responses"}, {"measurement": "whole cell cAMP", "setting": "[2]", "value": "substantially increased"}, {"measurement": "concentration at 15 min", "setting": "[3]", "value": 334, "unit": "ng/mL"}, {"measurement": "Ki", "setting": "[4]", "value": 0.037, "unit": "nM"}, {"measurement": "hemodynamic or cardiac changes", "setting": "[5]", "value": "failed to show any significant hemodynamic or cardiac changes"}, {"measurement": "Ki", "setting": "[6]", "value": 0.034, "unit": "nM"}, {"measurement": "plasma cAMP", "setting": "[7]; HF dogs, single drugs", "value": "not significantly changed"}, {"measurement": "plasma cGMP", "setting": "[7]; all conditions, normal and HF models", "value": "remains unchanged"}, {"measurement": "concentration at 15 min", "setting": "[8]", "value": "213 ± 88", "unit": "ng/mL"}, {"measurement": "hemodynamic responses in all but heart rate", "setting": "[9]; 0.01 mg/kg i.v.", "value": "negligible"}, {"measurement": "hemodynamic responses", "setting": "[9]; 0.1 mg/kg i.v.", "value": "positive chronotropic, inotropic, lusitropic, and vasodilator responses were observed"}, {"measurement": "PV loop area (stroke work) and contractility", "setting": "[9]; 10 mg/kg Compound 1 added to 10 μg/kg/min dobutamine, control and failing hearts", "value": "further enhanced both"}, {"measurement": "increase in heart rate", "setting": "[9]; HF animals, 10 mg/kg oral", "value": "blunted"}, {"measurement": "augmentation of cardiac output", "setting": "[9]; HF dogs, 10 mg/kg oral, two hours", "value": 32, "unit": "%"}, {"measurement": "LV preload (end-diastolic volume) or systolic pressure", "setting": "[9]; [12]", "value": "little change"}, {"measurement": "contractility (end-systolic elastance)", "setting": "[9]; [12]", "value": "increase in contractility"}, {"measurement": "augmentation of cardiac output", "setting": "[9]; control dogs, 10 mg/kg oral, two hours", "value": 50, "unit": "%"}, {"measurement": "inotropy, lusitropy and vasodilation", "setting": "[9]; heart failure dogs, 0.1 mg/kg i.v.", "value": "remained significantly improved"}, {"measurement": "time to peak hemodynamic response", "setting": "[9]; intravenous, normal and HF dogs", "value": "5 to 10", "unit": "min"}, {"measurement": "heart rate", "setting": "[9]; normal dogs, 10 mg/kg oral", "value": "increased heart rate"}, {"measurement": "relaxation (dP/dtmin and relaxation time constant tau)", "setting": "[9]; normal dogs, 10 mg/kg oral", "value": "improved"}, {"measurement": "systemic vascular resistance", "setting": "[9]; normal dogs, 10 mg/kg oral", "value": "reduced systemic vascular resistance"}, {"measurement": "systolic blood pressure", "setting": "[9]; normal dogs, 10 mg/kg oral", "value": "without altering systolic blood pressure"}, {"measurement": "greater activity toward PDE1 isoforms compared with PDE4D", "setting": "[10]", "value": "> 1000", "unit": "fold"}, {"measurement": "therapeutic levels (plasma)", "setting": "[11]; in vivo", "value": "100 to 300", "unit": "ng/mL"}, {"measurement": "concentration at 10 min", "setting": "[11]; 0.01 mg/kg, plasma Compound 1 concentration, dogs, 0.01 mg/kg i.v.", "value": "23.6 ± 8.6", "unit": "ng/mL"}, {"measurement": "concentration at 10 min", "setting": "[11]; [13]", "value": "211 ± 60.7", "unit": "ng/mL"}, {"measurement": "concentration at 30 min", "setting": "[11]; [13]", "value": "94.5 ± 21.2", "unit": "ng/mL"}, {"measurement": "concentration at 10 min", "setting": "[11]; [14]", "value": "441 ± 92.5", "unit": "ng/mL"}, {"measurement": "concentration at 30 min", "setting": "[11]; [14]", "value": "185 ± 28.9", "unit": "ng/mL"}, {"measurement": "concentration at 120 min", "setting": "[11]; plasma Compound 1 concentration, HF dogs", "value": "178 ± 100", "unit": "ng/mL"}, {"measurement": "concentration at 120 min", "setting": "[11]; plasma Compound 1 concentration, normal dogs", "value": "104 ± 8.5", "unit": "ng/mL"}]}]}
